Laboratory results from patent publication US5506102A (priority 1993, dated 1996).

How the values were obtained:
[1] = molecular target: T1, glucocorticoid receptor (GR) (Homo sapiens, UniProt P04150); conditions: high concentrations, dexamethasone present, FIG. 8B
T1 sequence (P04150 1-777): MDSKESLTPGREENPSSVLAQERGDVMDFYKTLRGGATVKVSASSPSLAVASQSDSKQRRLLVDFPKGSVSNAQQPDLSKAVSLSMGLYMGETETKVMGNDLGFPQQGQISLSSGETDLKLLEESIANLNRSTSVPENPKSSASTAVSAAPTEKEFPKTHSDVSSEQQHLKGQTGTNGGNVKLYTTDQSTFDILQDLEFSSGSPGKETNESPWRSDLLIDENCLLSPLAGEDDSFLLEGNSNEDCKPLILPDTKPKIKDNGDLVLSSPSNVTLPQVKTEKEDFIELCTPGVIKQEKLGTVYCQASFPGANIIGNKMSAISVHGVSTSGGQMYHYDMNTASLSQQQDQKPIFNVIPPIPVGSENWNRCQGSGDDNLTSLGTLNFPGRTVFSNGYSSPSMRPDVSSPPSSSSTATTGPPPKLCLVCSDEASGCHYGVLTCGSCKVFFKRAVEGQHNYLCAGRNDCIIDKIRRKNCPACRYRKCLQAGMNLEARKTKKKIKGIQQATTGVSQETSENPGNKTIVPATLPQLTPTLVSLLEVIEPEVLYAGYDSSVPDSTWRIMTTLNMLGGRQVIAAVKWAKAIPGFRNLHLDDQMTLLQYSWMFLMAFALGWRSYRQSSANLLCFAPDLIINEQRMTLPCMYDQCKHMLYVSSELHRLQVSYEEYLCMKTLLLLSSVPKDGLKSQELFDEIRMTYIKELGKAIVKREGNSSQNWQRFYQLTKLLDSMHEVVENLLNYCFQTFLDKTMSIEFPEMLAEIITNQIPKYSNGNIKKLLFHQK
Experimental: Cells were seeded in 12-well, 96-well or 10 cm tissue culture plates. […] 20 μg of DNA/ml of transfection buffer were used in each transfection reaction. In this mix, the concentration of the luciferase plasmids and that of the internal control plasmid pCH110 (Pharmacia, Inc.), which contains the gene for the β-galactosidase enzyme, remained constant ([…] of each plasmid DNA), while the receptor plasmid concentration varied as indicated for each experiment. Different amounts of receptor parental plasmid, pSV2-neo (Dr. Bert O'Malley, Baylor College of Medicine, Houston, Tex.) was included to keep constant the total amount of the SV40 enhancer vectors. pGEM4 plasmid DNA (Promega Biotech, Madison, Wis.) was added to balance the total DNA concentration to 20 g/reaction. For the 96-well plate experiments, transfections were performed on a Biomek 1000 Automated Laboratory Workstation (Beckman Instruments, Fullerton, Calif.).
Cells were seeded 24 hours prior to transfection in the fiat-bottom tissue culture plates ([…]) in phenol red-free DMEM containing 10% FCS. […] Using calcium phosphate co-precipitation, DNA solution was added dropwise with vortexing into an equal volume of 2X HBS pH 6.9 (280 mM NaCl. 50 mM HEPES, 1.5 mM Na2 HPO4) and precipitates were allowed to form for 20 minutes. Cells were transfected ( […] of DNA mix/well) for 6 hours and then washed with phosphate-bufferedsaline (PBS) to remove the precipitate. Cells were incubated for an additional 24 hours in phenol red-free medium containing 10% charcoal-treated FCS, with or without hormones as indicated in the text. Cell extracts were prepared as described by Berger et al., Supra, and assayed for luciferase and β-galactosidase activities. All determinations were performed in triplicates in at least two independent experiments, and were normalized for transfection efficiency by using β-galactosidase as an internal control.

PR-B = molecular target: T2, PR-B (Homo sapiens, UniProt P06401); experiment: PR-B transactivation of PRE2 tk-LUC; type: cell-based; conditions: CV-1, 10^-7 M progesterone, FIG. 4A
T2 sequence (P06401 1-933): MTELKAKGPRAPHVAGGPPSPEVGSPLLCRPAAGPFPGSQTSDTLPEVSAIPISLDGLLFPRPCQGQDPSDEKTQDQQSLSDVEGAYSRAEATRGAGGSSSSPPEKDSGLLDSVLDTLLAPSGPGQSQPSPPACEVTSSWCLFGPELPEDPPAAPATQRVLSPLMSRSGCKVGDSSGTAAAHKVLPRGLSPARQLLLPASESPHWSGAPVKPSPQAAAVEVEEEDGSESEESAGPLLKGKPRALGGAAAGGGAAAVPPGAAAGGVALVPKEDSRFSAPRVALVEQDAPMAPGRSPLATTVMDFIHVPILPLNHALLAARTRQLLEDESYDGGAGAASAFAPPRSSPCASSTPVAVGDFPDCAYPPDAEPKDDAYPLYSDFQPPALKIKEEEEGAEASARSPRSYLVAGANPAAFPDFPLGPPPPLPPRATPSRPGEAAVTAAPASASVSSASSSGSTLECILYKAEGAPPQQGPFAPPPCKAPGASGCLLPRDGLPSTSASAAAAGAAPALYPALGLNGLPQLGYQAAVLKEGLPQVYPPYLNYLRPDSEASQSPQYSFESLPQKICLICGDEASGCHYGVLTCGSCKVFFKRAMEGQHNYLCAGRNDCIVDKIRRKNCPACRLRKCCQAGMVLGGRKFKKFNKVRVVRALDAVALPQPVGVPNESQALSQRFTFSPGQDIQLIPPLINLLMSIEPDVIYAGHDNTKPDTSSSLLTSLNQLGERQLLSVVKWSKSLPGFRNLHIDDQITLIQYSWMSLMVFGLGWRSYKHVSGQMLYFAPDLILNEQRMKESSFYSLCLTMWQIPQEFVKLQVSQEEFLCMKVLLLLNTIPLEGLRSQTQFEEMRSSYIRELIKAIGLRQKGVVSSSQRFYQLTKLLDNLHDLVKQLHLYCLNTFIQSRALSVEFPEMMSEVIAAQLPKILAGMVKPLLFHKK
Experimental: FIGS. 4A-4B are a series of graphs showing CV-1 ([…]) or HepG2 (FIG. 4B) cells that were transiently transfected with either […] of phPR-B or phPR-A alone, or phPR-B in the presence of increasing concentrations of phPR-A, together with 5 µg/ml of the PRE2 tk-LUC reporter and 5 µg/ml of pCH110 as an internal control. HeLa cells (FIG. 4C) were transfected with either phPR-B or phPR-A together with 5 µg/ml of the pTAT2950 reporter and 5 µg/ml of pCH110 as an internal control. […] The relative luciferase activity is calculated by dividing the normalized luciferase value at a given point by that obtained in the absence of transfected receptor or ligand. The data shown represent the mean +/- average deviation from the mean of triplicate estimations;
Both reporter plasmids were digested with XhoI and HindIII restriction enzymes and a 6.7 Kb fragment from MMTV-LUC and a 0.12 Kb fragment from PRE2 tk-CAT were isolated and ligated, resulting in a plasmid called PRE2 tk-LUC.
Cells were seeded in 12-well, 96-well or 10 cm tissue culture plates. […] 20 μg of DNA/ml of transfection buffer were used in each transfection reaction. […]

| SMILES | direct inhibition of GR function [1] | PR-B transcriptional activity on PRE2 tk-LUC (PR-B) |
| --- | --- | --- |
| CC#C[C@]1(O)CC[C@H]2[C@@H]3CCC4=CC(=O)CCC4=C3[C@@H](c3ccc(C(C)=O)cc3)C[C@@]21C [ZK112993] | directly inhibited GR function | – |
| CC(=O)[C@H]1CC[C@H]2[C@@H]3CCC4=CC(=O)CC[C@]4(C)[C@H]3CC[C@]12C [progesterone] | – | transcriptionally active |
